According to patent US8846698B2, “Pyrrolo[2,3-d]pyrimidine tropomysin-related kinase inhibitors” (Pfizer Limited, priority 2011, dated 2014):
Where two headings read alike, the source gives them in different places.

Tests used:
TRKA [1] = biological target: T1, TRKA (Homo sapiens (Human), UniProt P04629); assay: Isolated TRK enzyme assay (HTRF KinEASE-TK), TRKA; type: biochemical; settings: isolated TRKA enzyme; read-out: TrkA enzyme potency
Target sequence in this assay (P04629 441-796): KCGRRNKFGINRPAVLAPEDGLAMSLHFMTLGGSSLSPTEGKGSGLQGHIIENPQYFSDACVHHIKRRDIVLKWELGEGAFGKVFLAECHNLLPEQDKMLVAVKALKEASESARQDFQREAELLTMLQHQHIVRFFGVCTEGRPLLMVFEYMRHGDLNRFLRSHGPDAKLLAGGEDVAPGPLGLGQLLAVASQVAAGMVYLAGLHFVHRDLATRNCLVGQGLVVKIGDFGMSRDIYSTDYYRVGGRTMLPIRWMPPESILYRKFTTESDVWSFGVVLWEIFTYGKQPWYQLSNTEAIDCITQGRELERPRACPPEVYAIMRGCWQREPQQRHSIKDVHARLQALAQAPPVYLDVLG

TRKB [2] = biological target: T2, TRKB (Homo sapiens (Human), UniProt Q16620); assay: biochemical
TRKA [3] = biological target: T1, TRKA; assay: Cell based DiscoveRx PathHunter antagonist assay, TRKA cell line; settings: read-out: TrkA cell potency
Target sequence in this assay (P04629 33-796): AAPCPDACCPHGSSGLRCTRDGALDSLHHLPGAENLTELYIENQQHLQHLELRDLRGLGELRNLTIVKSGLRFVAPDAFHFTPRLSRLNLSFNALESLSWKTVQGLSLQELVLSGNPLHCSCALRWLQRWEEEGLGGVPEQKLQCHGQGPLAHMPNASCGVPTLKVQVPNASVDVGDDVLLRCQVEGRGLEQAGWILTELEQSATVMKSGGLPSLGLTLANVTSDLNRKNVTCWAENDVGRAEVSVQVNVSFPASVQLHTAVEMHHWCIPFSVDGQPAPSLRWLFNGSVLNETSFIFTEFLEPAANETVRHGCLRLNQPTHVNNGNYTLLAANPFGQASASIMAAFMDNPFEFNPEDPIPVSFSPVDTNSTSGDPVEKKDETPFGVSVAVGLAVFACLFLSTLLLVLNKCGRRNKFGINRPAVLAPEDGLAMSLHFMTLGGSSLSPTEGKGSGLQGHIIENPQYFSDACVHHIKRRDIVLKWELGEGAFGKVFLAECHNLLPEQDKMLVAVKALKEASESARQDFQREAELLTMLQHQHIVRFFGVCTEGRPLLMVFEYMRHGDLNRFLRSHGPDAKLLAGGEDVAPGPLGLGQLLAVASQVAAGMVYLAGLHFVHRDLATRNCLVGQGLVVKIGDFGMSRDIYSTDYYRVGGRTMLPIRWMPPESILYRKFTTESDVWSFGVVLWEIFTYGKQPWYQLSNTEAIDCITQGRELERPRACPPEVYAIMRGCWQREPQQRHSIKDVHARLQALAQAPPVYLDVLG

TRKB [4] = biological target: T2, TRKB; assay: cell-based; settings: TrkB cell potency, TRKB PathHunter cell line
TRKC = TRKC (Homo sapiens (Human), UniProt Q16288); assay: Cell based DiscoveRx PathHunter antagonist assay, TRKC cell line; settings: read-out: TrkC cell potency
Procedure: After the Detection Reagent addition, plates are covered and incubated at room temperature for 60 minutes. […] Test compound data are expressed as percentage inhibition defined by HPE and ZPE values for each plate. Percentage inhibition in the presence of test compound is plotted against compound concentration on a log scale to determine an IC50 from the resultant sigmoid curve. Cell Based Assays were carried out using Cell lines from DiscoveRx utilising their PathHunter technology and reagents in an antagonist assay:
The assays are based upon DiscoveRx's proprietary Enzyme Fragment Complementation (EFC) technology. In the case of the TRK cell lines, the enzyme acceptor (EA) protein is fused to a SH2 protein and the TRK receptor of interest has been tagged with a Prolink tag.
Upon neurotrophin binding, the TRK receptor becomes phosphorylated, and the tagged SH2 protein binds.
This means that the IC50 is a good measure of affinity and should be unaffected by concentration neurotrophin stimulant.
Cryopreserved PathHunter cells are used from either in-house produced batches or bulk batches bought directly from DiscoveRx. Cryopreserved cells are resuscitated, spun 1000 rpm for 4 min to remove freezing media, and resuspended in MEM+0.5% horse serum (both Invitrogen) to 5e^5 cells/ml. The cells are then plated using a Multidrop into Greiner white tissue culture treated plates at 20 ul/well and incubated for 24 h at 37° C., 5% CO2, high humidity. On the day of the assay, the cell plates are allowed to cool to room temperature for 30 min prior to the assay.
Plates containing 1 ul of serially diluted compound, standard and HPE/ZPE are diluted 1/66 in assay buffer (PBS minus Ca^2+, minus Mg^2+ with 0.05% pluronic F127) using a Wellmate. […] The plates are left at room temperature for a further 2 hours before addition of 10 ul of the DiscoveRx PathHunter detection reagent (made up by adding 1 part Galacton Star, 5 parts Emerald II and 19 parts Cell Assay Buffer as per the manufacturer's instructions).
After reagent addition, plates are covered and incubated at room temperature for 60 minutes. Luminescence signal is read using an Envision. Test compound data are expressed as percentage inhibition defined by HPE and ZPE values for each plate. Percentage inhibition in the presence of test compound is plotted against compound concentration on a log scale to determine an […] from the resultant sigmoid curve.

MDR1 = MDR1 (Homo sapiens (Human), UniProt P08183); assay: MDCK-MDR1 assay (in vitro brain penetration); type: in vitro ADME; settings: for Papp A→B / Papp B→A: human; for Papp A→B: read-out: MDCK MDR1 Papp AB; for Papp B→A: read-out: MDCK MDR1 Papp BA
Excerpt: MDCK-MDR1: MDCK-MDR1 data were collected according to the method described in “Are MDCK Cells Transfected with the Human MDR1 Gene a Good Model of the Human Intestinal Mucosa?”
http://www.springerlink.com/content/qfhqlqbr4fnp3 khf/fulltext.pdf

[5] = isolated TRKB enzyme, read-out: TrkB enzyme potency

Sequence of TRKC (Q16288 32-839): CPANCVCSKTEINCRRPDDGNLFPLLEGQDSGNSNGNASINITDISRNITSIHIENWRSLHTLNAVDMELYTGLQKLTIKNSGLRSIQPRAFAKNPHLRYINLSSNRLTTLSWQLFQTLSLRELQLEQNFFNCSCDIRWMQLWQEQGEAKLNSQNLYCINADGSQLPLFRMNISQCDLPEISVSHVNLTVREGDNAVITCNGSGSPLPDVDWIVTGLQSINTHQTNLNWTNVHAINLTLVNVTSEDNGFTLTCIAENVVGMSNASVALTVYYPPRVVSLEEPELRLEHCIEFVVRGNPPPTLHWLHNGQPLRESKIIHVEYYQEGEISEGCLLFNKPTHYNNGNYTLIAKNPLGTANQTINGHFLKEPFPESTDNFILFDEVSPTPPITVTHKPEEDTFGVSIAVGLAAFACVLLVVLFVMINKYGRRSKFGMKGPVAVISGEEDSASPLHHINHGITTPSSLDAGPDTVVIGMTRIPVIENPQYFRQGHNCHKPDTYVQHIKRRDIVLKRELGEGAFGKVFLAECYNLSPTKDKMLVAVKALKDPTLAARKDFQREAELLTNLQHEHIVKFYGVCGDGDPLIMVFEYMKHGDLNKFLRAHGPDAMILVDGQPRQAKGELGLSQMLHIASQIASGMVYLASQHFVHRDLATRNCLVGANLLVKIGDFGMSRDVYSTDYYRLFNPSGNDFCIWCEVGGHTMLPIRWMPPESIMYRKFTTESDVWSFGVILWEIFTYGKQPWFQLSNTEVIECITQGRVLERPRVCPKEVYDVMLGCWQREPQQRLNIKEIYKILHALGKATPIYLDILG
Sequence of MDR1 (P08183 whole entry): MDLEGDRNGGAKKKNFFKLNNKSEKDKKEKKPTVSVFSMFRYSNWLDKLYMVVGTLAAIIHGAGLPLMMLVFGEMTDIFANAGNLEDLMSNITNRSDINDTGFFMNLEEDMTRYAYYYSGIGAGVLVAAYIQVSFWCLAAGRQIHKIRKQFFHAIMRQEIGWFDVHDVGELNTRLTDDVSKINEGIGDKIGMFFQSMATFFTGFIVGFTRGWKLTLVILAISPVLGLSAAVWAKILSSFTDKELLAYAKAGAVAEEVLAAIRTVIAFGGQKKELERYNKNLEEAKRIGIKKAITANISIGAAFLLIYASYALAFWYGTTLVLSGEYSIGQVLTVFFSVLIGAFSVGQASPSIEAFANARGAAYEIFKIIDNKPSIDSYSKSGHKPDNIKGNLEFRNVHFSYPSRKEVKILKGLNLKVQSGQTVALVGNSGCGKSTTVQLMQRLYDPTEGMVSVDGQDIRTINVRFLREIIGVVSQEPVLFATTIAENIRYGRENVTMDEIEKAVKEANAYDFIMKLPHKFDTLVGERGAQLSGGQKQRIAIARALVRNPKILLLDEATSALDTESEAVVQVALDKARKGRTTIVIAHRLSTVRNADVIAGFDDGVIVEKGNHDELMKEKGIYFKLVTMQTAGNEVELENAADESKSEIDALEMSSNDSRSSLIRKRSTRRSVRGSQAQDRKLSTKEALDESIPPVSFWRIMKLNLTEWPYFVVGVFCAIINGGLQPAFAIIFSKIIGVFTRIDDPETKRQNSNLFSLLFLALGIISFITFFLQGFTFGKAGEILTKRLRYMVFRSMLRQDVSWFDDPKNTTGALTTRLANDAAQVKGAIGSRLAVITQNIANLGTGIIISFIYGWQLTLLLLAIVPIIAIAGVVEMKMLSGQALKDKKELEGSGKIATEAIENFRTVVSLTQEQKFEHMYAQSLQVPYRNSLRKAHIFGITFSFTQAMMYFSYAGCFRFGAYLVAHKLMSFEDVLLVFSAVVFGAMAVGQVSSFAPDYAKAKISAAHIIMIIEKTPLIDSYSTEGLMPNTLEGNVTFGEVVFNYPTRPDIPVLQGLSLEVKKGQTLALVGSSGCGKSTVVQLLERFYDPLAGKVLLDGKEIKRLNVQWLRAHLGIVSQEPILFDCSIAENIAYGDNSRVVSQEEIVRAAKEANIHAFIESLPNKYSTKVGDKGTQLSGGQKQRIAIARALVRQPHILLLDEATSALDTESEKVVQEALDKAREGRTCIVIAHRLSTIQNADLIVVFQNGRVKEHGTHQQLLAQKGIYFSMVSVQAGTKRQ
T2 sequence (Q16620 32-822 limits assumed): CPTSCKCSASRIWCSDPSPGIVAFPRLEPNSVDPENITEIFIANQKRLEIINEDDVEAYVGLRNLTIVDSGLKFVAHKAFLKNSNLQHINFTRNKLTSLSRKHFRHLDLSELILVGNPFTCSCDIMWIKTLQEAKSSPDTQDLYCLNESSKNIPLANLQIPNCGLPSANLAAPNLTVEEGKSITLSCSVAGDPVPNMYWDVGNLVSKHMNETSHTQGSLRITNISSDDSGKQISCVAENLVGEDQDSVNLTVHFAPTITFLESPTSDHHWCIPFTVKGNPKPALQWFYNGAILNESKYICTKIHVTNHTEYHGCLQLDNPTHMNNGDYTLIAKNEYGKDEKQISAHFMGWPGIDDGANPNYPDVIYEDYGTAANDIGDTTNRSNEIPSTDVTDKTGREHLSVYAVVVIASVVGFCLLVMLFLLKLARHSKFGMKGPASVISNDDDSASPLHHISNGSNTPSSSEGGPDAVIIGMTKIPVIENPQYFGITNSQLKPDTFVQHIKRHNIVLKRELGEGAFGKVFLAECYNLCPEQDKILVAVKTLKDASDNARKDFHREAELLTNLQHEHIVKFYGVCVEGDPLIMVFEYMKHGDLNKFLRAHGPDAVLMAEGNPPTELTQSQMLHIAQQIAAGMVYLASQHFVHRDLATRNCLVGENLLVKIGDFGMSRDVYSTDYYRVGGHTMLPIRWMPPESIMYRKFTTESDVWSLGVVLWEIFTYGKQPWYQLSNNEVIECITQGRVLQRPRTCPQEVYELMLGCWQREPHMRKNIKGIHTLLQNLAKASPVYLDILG

SMILES | IC50 (TRKA [1]) | IC50 (TRKB [2]; TrkB enzyme potency) | IC50 (TRKA [3]) | IC50 (TRKB [4]) | IC50 (TRKC) | Papp A→B (MDR1; MDCK-MDR1, A to B) | Papp B→A (MDR1; MDCK-MDR1, B to A) | IC50 (TRKB [2]; [5]) | Papp B→A (MDR1; MDCK-MDR1, MDCK-MDR1, B to A) | MDCK MDR1 Papp AB (MDR1; MDCK-MDR1, A to B) | MDCK MDR1 Papp BA (MDR1; MDCK-MDR1, B to A)
C[C@H](CO)n1cc(C(=O)c2cncc(NC(=O)Cc3ccc(Cl)cc3)c2)c2cncnc21 [Example 24, 2-(4-chlorophenyl)-N-[5-({7-[(1R)-2-hydroxy-1-methylethyl]-7H-pyrrolo[2,3-d]pyrimidin-5-yl}carbonyl)pyridin-3-yl]acetamide] | 125 nM | 427 nM | 37 nM | 27 nM | 8.9 nM | < 1 ×10⁻⁶ cm/s | 10 ×10⁻⁶ cm/s |  |  |  | 
CC(C)(CO)n1cc(C(=O)c2cncc(NC(=O)Cc3ccc(C(F)(F)F)cc3)c2)c2cnc(N)nc21 [Example 48, N-(5-{[2-amino-7-(2-hydroxy-1,1-dimethylethyl)-7H-pyrrolo[2,3-d]pyrimidin-5-yl]carbonyl}pyridin-3-yl)-2-[4-(trifluoromethyl)phenyl]acetamide] | 1.7 nM |  | 2.9 nM | 3.6 nM | 2.5 nM | < 1 ×10⁻⁶ cm/s |  | 40 nM | 12 ×10⁻⁶ cm/s |  | 
CC(C)(C)n1cc(C(=O)c2cncc(NC(=O)Cn3cc(C(F)(F)F)nn3)c2)c2cncnc21 [Example 2, N-{5-[(7-tert-butyl-7H-pyrrolo[2,3-d]pyrimidin-5-yl)carbonyl]pyridin-3-yl}-2-[4-(trifluoromethyl)-1H-1,2,3-triazol-1-yl]acetamide] | 8.4 nM | 113 nM | 5.3 nM | 3.9 nM | 1.1 nM | < 1 ×10⁻⁶ cm/s | 15 ×10⁻⁶ cm/s |  |  |  | 
CC(C)(C)n1cc(C(=O)c2cncc(NC(=O)Cn3cc(C(F)(F)F)cn3)c2)c2cncnc21 [Example 8, N-{5-[(7-tert-butyl-7H-pyrrolo[2,3-d]pyrimidin-5-yl)carbonyl]pyridin-3-yl}-2-[4-(trifluoromethyl)-1H-pyrazol-1-yl]acetamide] | 2.4 nM | 15 nM | 1.9 nM | 2 nM | 2.3 nM | 1.8 ×10⁻⁶ cm/s | 15 ×10⁻⁶ cm/s |  |  |  | 
CC(CO)n1cc(C(=O)c2cncc(NC(=O)Cc3ccc(C(F)(F)F)cc3)c2)c2cnc(N)nc21 (single isomer, unassigned) [Example 43, N-(5-{[2-amino-7-(2-hydroxy-1-methylethyl)-7H-pyrrolo[2,3-d]pyrimidin-5-yl]carbonyl}pyridin-3-yl)-2-[4-(trifluoromethyl)phenyl]acetamide] | 5.1 nM |  | 17 nM | 19 nM | 11 nM |  |  | 136 nM |  | <1 ×10⁻⁶ cm/s | 13 ×10⁻⁶ cm/s
CC(CO)n1cc(C(=O)c2cncc(NC(=O)Cc3ccc(C(F)(F)F)cc3)c2)c2cnc(N)nc21 (single isomer, unassigned) [Example 36, N-(5-{[2-amino-7-(2-hydroxy-1-methylethyl)-7H-pyrrolo[2,3-d]pyrimidin-5-yl]carbonyl}pyridin-3-yl)-2-[4-(trifluoromethyl)phenyl]acetamide] | 4.5 nM |  | 11 nM | 13 nM | 13 nM | < 1 ×10⁻⁶ cm/s |  | 303 nM | 12 ×10⁻⁶ cm/s |  | 
Cc1cc(C(F)(F)F)nn1CC(=O)Nc1cncc(C(=O)c2cn([C@@H](C)CO)c3ncncc23)c1 [Example 10, N-[5-({7-[(1S)-2-Hydroxy-1-methylethyl]-7H-pyrrolo[2,3-d]pyrimidin-5-yl}carbonyl)pyridin-3-yl]-2-[5-methyl-3-(trifluoromethyl)-1H-pyrazol-1-yl]acetamide] | 5.7 nM |  | 30 nM | 18 nM | 18 nM | < 1 ×10⁻⁶ cm/s |  | 78 nM | 14 ×10⁻⁶ cm/s |  | 
C[C@@H](CO)n1cc(C(=O)c2cncc(NC(=O)Cc3ccc(Cl)cn3)c2)c2cncnc21 [Example 14, 2-(5-chloropyridin-2-yl)-N-[5-({7-[(1S)-2-hydroxy-1-methylethyl]-7H-pyrrolo[2,3-d]pyrimidin-5-yl}carbonyl)pyridin-3-yl]acetamide] | 13 nM |  | 41 nM | 15 nM | 4.8 nM | < 1 ×10⁻⁶ cm/s |  | 773 nM | 21 ×10⁻⁶ cm/s |  | 
CC(C)(CO)n1cc(C(=O)c2cncc(NC(=O)Cn3cc(C(F)(F)F)nn3)c2)c2cncnc21 [Example 32, N-(5-{[7-(2-hydroxy-1,1-dimethylethyl)-7H-pyrrolo[2,3-d]pyrimidin-5-yl]carbonyl}pyridin-3-yl)-2-[4-(trifluoromethyl)-1H-1,2,3-triazol-1-yl]acetamide] | 9 nM |  | 87 nM | 59 nM | 18 nM | < 1 ×10⁻⁶ cm/s |  | 423 nM | 3.4 ×10⁻⁶ cm/s |  | 
C[C@@H](CO)n1cc(C(=O)c2cncc(NC(=O)Cc3ccc(Cl)cc3)c2)c2cncnc21 [Example 11, 2-(4-chlorophenyl)-N-[5-({7-[(1S)-2-hydroxy-1-methylethyl]-7H-pyrrolo[2,3-d]pyrimidin-5-yl}carbonyl)pyridin-3-yl]acetamide] | 3.3 nM | 197 nM | 17 nM | 11 nM | 6.6 nM | < 1 ×10⁻⁶ cm/s | 23 ×10⁻⁶ cm/s |  |  |  | 
CC(CO)n1cc(C(=O)c2cncc(NC(=O)Cc3ccc(Cl)cc3)c2)c2cnc(N)nc21 (single isomer, unassigned) [Example 34, N-(5-{[2-Amino-7-(2-hydroxy-1-methylethyl)-7H-pyrrolo[2,3-d]pyrimidin-5-yl]carbonyl}pyridin-3-yl)-2-(4-chlorophenyl)acetamide] | 3.6 nM |  | 23 nM | 25 nM | 13 nM | < 1 ×10⁻⁶ cm/s |  | 200 nM | 11 ×10⁻⁶ cm/s |  | 
CC(C)(C)n1cc(C(=O)c2cncc(NC(=O)Cn3ccc(C(F)(F)F)n3)c2)c2cncnc21 [Example 5, N-{5-[(7-tert-butyl-7H-pyrrolo[2,3-d]pyrimidin-5-yl)carbonyl]pyridin-3-yl}-2-[3-(trifluoromethyl)-1H-pyrazol-1-yl]acetamide] | 2.6 nM |  | 3.5 nM | 3.6 nM | 2 nM | 1.5 ×10⁻⁶ cm/s |  | 73 nM | 14 ×10⁻⁶ cm/s |  | 
CC(C)(CO)n1cc(C(=O)c2cncc(NC(=O)Cn3ccc(C4CC4)n3)c2)c2cnc(N)nc21 [Example 53, N-(5-{[2-amino-7-(2-hydroxy-1,1-dimethylethyl)-7H-pyrrolo[2,3-d]pyrimidin-5-yl]carbonyl}pyridin-3-yl)-2-(3-cyclopropyl-1H-pyrazol-1-yl)acetamide] | 4 nM | 163 nM | 16 nM | 5 nM | 8.6 nM | < 1 ×10⁻⁶ cm/s | 13 ×10⁻⁶ cm/s |  |  |  | 
CC(CO)n1cc(C(=O)c2cncc(NC(=O)Cc3ccc(Cl)cn3)c2)c2cnc(N)nc21 (single isomer, unassigned) [Example 35, N-(5-{[2-amino-7-(2-hydroxy-1-methylethyl)-7H-pyrrolo[2,3-d]pyrimidin-5-yl]carbonyl}pyridin-3-yl)-2-(5-chloropyridin-2-yl)acetamide] | 8.9 nM |  | 103 nM | 37 nM |  | < 1 ×10⁻⁶ cm/s |  | 223 nM | 5.3 ×10⁻⁶ cm/s |  | 
CC(C)(C)n1cc(C(=O)c2cncc(NC(=O)Cn3cc(C4CC4)cn3)c2)c2cncnc21 [Example 7, N-{5-[(7-tert-butyl-7H-pyrrolo[2,3-d]pyrimidin-5-yl)carbonyl]pyridin-3-yl}-2-(4-cyclopropyl-1H-pyrazol-1-yl)acetamide] | 11 nM |  | 2.1 nM | 0.8 nM |  | 5.6 ×10⁻⁶ cm/s |  | 41 nM | 20 ×10⁻⁶ cm/s |  | 
